This is an account of results in patent US11980616B2, “Treating liver disease by selectively eliminating senescent cells” (Buck Institute for Research on Aging, priority 2014, dated 2024).

For data set [1], the system named is 3MR or INK-ATTAC mice exposed to cigarette smoke. In words: Chronic cigarette smoke exposure model (COPD). The format is in vivo, mouse. Conditions: after 2 months of cigarette smoke exposure; vs untreated controls. Here is the method:
In a second animal model for pulmonary diseases (e.g., COPD), mice were exposed to cigarette smoke. The effect of a senolytic agent on the mice exposed to smoke is assessed by senescent cell clearance, lung function, and histopathology.
Six week-old 3MR (n=35) or INK-ATTAC (n=35) mice were chronically exposed to cigarette smoke generated from a Teague TE-10 system, an automatically-controlled cigarette smoking machine that produces a combination of side-stream and mainstream cigarette smoke in a chamber, which is transported to a collecting and mixing chamber where varying amounts of air is mixed with the smoke mixture. The COPD protocol was adapted from the COPD core facility at Johns Hopkins University (at Internet site web.jhu.edu/Biswal/exposure_core/copd.html#Cigarette_Smoke) (Rangasamy et al., 2004, J. Clin. Invest. 114:1248-1259; Yao et al., 2012, J. Clin. Invest. 122:2032-2045). Mice received a total of 6 hours of cigarette smoke exposure per day, 5 days a week for 6 months. Each lighted cigarette (3R4F research cigarettes containing 10.9 mg of total particulate matter (TPM), 9.4 mg of tar, and 0.726 mg of nicotine, and 11.9 mg carbon monoxide per cigarette [University of Kentucky, Lexington, KY]) was puffed for 2 seconds and once every minute for a total of 8 puffs, with the flow rate of 1.05 L/min, to provide a standard puff of 35 cm^3. The smoke machine was adjusted to produce a mixture of side stream smoke (89%) and mainstream smoke (11%) by smoldering 2 cigarettes at one time. The smoke chamber atmosphere was monitored for total suspended particulates (80-120 mg/m^3) and carbon monoxide (350 ppm). Beginning at day 7, (10) INK-ATTAC and (10) 3MR mice were treated with AP20187 (3× per week) or gancyclovir (5 consecutive days of treatment followed by 16 days off drug, repeated until the end of the experiment), respectively. An equal number of mice received the corresponding vehicle. The remaining […] (15 INK-ATTAC and 15 3MR) were evenly split with 5 of each genetically modified strain placed into three different treatment groups. One group (n=10) received Nutlin-3A (25 mg/kg dissolved in 10% DMSO/3% Tween-20 in PBS, treated 14 days consecutively followed by 14 days off drug, repeated until the end of the experiment). […]
After two months of cigarette smoke exposure, lung function was assessed by monitoring oxygen saturation using the MouseSTAT PhysioSuite pulse oximeter (Kent Scientific). […] Mice were monitored for 30 seconds and the average peripheral capillary oxygen saturation (SpO2) measurement over this duration was calculated.

Data set [2] concerns LDLR-/-/3MR double transgenic mice. As to the kind of experiment: Mature atherosclerotic plaques in LDLR-/-/3MR mice, 100 day treatment period. Conditions: vs LDLR-/- control. The format is in vivo, mouse. Here is the method:
The impact of clearance of senescent cells on the stability and size of mature atherosclerotic plaques was studied in LDLR^−/−/3MR double transgenic mice. From 10 weeks of age, LDLR^−/−/3MR double transgenic mice (10 weeks) and LDLR^−/− single transgenic mice (control) were fed a high fat diet (Harlan Teklad TD.88137) having 42% calories from fat beginning at Week 0 until Week 12.5, when the mice were switched to normal chow diet. Both groups of mice were treated with ganciclovir from week 12.5 over the next 100 days, with each treatment cycle comprising 5 days of ganciclovir (25 mg/kg intraperitoneally daily) and 14 days off. At the end of the 100 day treatment period, the mice were sacrificed, plasma and tissues were collected, and atherosclerosis was quantitated. Descending aortas were dissected and stained with Sudan IV to visualize the plaque lipids. […] Plaques from ganciclovir-treated LDLR^−/− control and LDLR^−/−/3MR mice (see dashed circled plaques in FIGS. 55A-B, respectively) were harvested and cut into cross-sections and stained with […] the general architecture of the atherosclerotic plaques. “#” indicates fat located on the outside of the aorta (see FIG. 55A). The plaques marked with an “*” and “**” in FIGS. 55A and B, respectively, are shown as stained cross-sections in FIGS. […], respectively. […] The plaque from the control mice has identifiable “lipid pockets” accumulating within. […] Disruption or tear in the cap of a lipid-rich plaque is a trigger for coronary events through exposure of plaque thrombogenic components to platelets and clotting components of the blood. Plaques that grow more rapidly as a result of rapid lipid deposition and have thin fibrin caps are prone to rupture. Slowly growing plaques with mature fibrin caps tend to stabilize and are not prone to rupture. Taken together, these experiments indicate that removal of senescent cells may affect atherosclerotic plaque architecture and have a stabilizing effect.

The subject of data set [3] is non-senescent foreskin fibroblasts (Non Sen HCA2). In words: Cell count toxicity assay, non-senescent HCA2. Conditions: 0, 2.5, 10 μM, 9 days. The format is cell-based. The protocol: Foreskin fibroblast cell lines HCA2 and BJ, lung fibroblast cell line IMR90, and mouse embryonic fibroblasts were seeded in six-well plates and induced to senesce with 10 Gy of ionizing radiation (IR) or a 24 hr treatment with doxorubicin (Doxo). Senescent phenotype was allowed to develop for at least 7 days, at which point a cell count was made to determine the baseline number of cells. Nutlin-3a treatment was then initiated for a period of at least 9 days. Media alone or media with drug as appropriate was refreshed at least every three days. At the end of the assay time period, cells are counted. Each condition was seeded in three plate wells and counted independently. Initial cell count serves as a control to determine the induction of senescence, as compared to the last day count without nutlin treatment. Initial non-senescent cell count serves as a proxy to determine Nutlin-3a toxicity.
Non-senescent foreskin fibroblasts (HCA2), lung fibroblasts (IMR90), and mouse embryonic fibroblasts (MEF) were treated with varying concentrations (0, 2.5 μM, and 10 μM) of Nutlin-3a for a period of 9 days to assess Nutlin-3a toxicity. Cell counts were taken at the start (NS start) and end of Nutlin-3a treatment. The difference between counts of cells not treated with Nutlin-3a on day 9 (NS 0) and cell counts determined at day zero (NS start) reflects the cell growth over the indicated time period. […]

Structures are written as SMILES.

With `Nc1nc(O)c2ncn(COC(CO)CO)c2n1` [ganciclovir], the SpO2 levels result in data set [1] is listed as “statistically significant increases”. Further, the “Atherosclerotic plaques in descending aorta (Sudan IV staining)” value in data set [2] (25 mg/kg i.p. 5 days on, 14 days off, 100 days) is “fewer atherosclerotic plaques with less intense staining”. In addition, in data set [2] (100 day treatment), the “% of the aorta covered in plaques (area of Sudan IV staining)” value is listed as “significantly lower”; the “Plaque morphology (cross-sections)” value was “presence of a thick fibrin cap and the absence of lipid pockets”.
As for `COc1ccc(C2=N[C@@H](c3ccc(Cl)cc3)[C@@H](c3ccc(Cl)cc3)N2C(=O)N2CCNC(=O)C2)c(OC(C)C)c1` [Nutlin-3a], in data set [3], the “Proliferation (percent growth)” value is reported as “reduces proliferation” and the “Toxicity (cell number vs starting level)” value is “non-toxic”. Also, the SpO2 levels result in data set [1] was “statistically significant increases”.
